The values that follow come from US20250144069A1, “BILOBALIDE DERIVATIVE COMPOUNDS FOR TREATING NEUROLOGICAL DISEASES AND CANCERS” (The Chinese University of Hong Kong, priority 2023, published 2025).

Data set [1] relates to NCI-60 cell line panel. Description: NCI-60 Human Tumor Cell Lines Screen, one-dose screen (SRB). Type of data set: cell-based. The following applies: 48 hours. The text has this:
In this example, the cytotoxic effect of DW192 was assess via the NCI-60 Human Tumor Cell Lines Screen, provided by the Developmental Therapeutics Program (DTP) of the National Cancer Institute (NCI) in the United States. This screening helps to identify and characterize the cytotoxic effect of compounds on 60 different human cancer cell lines, including leukemia, melanoma, and cancers of the lung, colon, brain, ovary, breast, prostate and kidneys. The screening comprised of two assays: one-dose screen and five-dose screen. In one-dose screen, 10 μM of DW192 was tested for 48 hours. In five-dose screen, four, 10-fold of ½ log serial dilutions were tested for 48 hours.
Method (Extracted from the NCI-60 Website)
Cells were seeded into 96-well plates in 100 uL at plating densities ranging from 5,000 to 40,000 cells/well depending on the doubling time of individual cell lines. Plates were incubated at 37° C.+5% CO2+95% air+100% relative humidity for 24 hours before adding compounds. Two plates of each cell line were fixed in situ with TCA, to represent a measurement of the cell population for each cell line at the time of drug addition (Tz). 100 uL of compounds in four, 10-fold of ½ log serial dilutions were added to the wells already containing 100 uL of medium. Plates were incubated at 37° C.+5% CO2+95% air+100% relative humidity for an additional 48 hours.
To terminate the assay, adherent cells were fixed in situ by the gentle addition of 50 uL of cold 50% (w/v) TCA (final concentration, 10% TCA) and incubated for 60 min at 4° C. For suspension cells, 50 uL of 80% TCA (final concentration, 16% TCA) was used.
Supernatant was discarded, and the plates were wash five times with tap water and air dried. […]
Remaining stained cells were solubilized with 10 mM trizma base. Absorbance at 515 nm was measured.
Percentage growth was calculated using the following equations:
[formula] [formula] • where Tz=absorbance at time zero, C=absorbance of control growth, Ti=absorbance of test growth in the presence of drug at the five concentration levels.

Data set [2] concerns KP-1 cells. Description: Dose-dependent CCK8 viability assay. Type of data set: cell-based. The following applies: Mus musculus, 48 hours. On the procedure: (§1) In this example, dose-dependent CCK8 Viability assay was performed to determine the IC50 (the concentration of compound to achieve 50% viability) of several of the hit compounds identified from Example 2. A variety of cell lines were used: • Jurkat cells: Human leukemia • A549 cells: Human NSCLC • KP-1 cells: Mouse NSCLC with KRAS and P53 mutations • MCF-7 cells: Human breast cancer
(§2) Method for Adherent Cells (A549, MCF-7 and KP-1 Cells)
(§3) 5000 cells/100 uL were seeded in 96-well plates and incubate at 37° C.+5% CO2 overnight. Media were replaced with 100 uL of compound per well in 6 replicates in a series of 2-fold dilutions. The following controls were prepared.
(§4) Blank control: 100 uL 0.1% DMSO in media with no cells per well.
(§5) Positive control: 100 uL of 10 uM 5-flurouracil per well.
(§6) Negative control: 100 uL of 0.1% DMSO in media per well.
(§7) Each 96-well plate included 1 compound in 7 concentrations and a complete set of controls (in 6 replicates).
(§8) Cells were incubated at 37° C.+5% CO2 for 46 hours. 10 uL of CCK8 solution was added to each well. Cells were incubated at 37° C.+5% CO2 for 2 hours. Absorbance at 450 nm was measured using a multiplate reader.
(§9) Viability was calculated using the equation: […]

Data set [3] concerns MCF-7 cells. Description: Dose-dependent CCK8 viability assay. The following applies: Homo sapiens, MCF7, 48 hours. In kind it is cell-based. On the procedure:
as §1, §2, §3, §4, §5, §6, §7, §8, §9

Data set [4] concerns A549 cells. Description: Single-dose CCK-8 cell viability screening (adherent cells). In kind it is cell-based, human. The following applies: A549 cells, 50 uM, 48 h, CCK-8.
Assay in data set [5]: as above
Type of data set: cell-based, human. The following applies: Homo sapiens, A549, 48 h, average of A549 and Jurkat % viability, 50 uM, 48 h.

Data set [6] has as its system Jurkat cells. Description: Single-dose CCK-8 cell viability screening (suspension cells). Type of data set: cell-based, human. The following applies: Jurkat cells, 50 uM.
For data set [7], the system named is A549 cells. Description: Dose-dependent CCK8 viability assay. In kind it is cell-based, human. On the procedure:
as §1, §2, §3, §4, §5, §6, §7, §8, §9

In data set [8] the test system is Jurkat cells. Description: Dose-dependent CCK8 viability assay. The following applies: Homo sapiens, 48 hours. Type of data set: cell-based. On the procedure: as §1
Method for Suspension Cells (Jurkat Cells)
5000 cells/90 uL were seeded in 96-well plates. 10 uL of compound (10×) in various concentrations was added to each well in 6 replicates. The following controls were prepared.
Blank control: 10 uL 1% DMSO in media with no cells per well.
Positive control: 10 uL of 100 uM 5-flurouracil (10×) per well.
Negative control: 10 uL of 1% DMSO in media (10×) per well.
Note: Each 96-well plate can test 1 compound in 7 concentrations with a complete set of controls (in 6 replicates)
as §8
Viability was calculated using this equation: […]

For data set [9], the system named is B16 melanoma cells. Description: B16 melanoma allograft in C57BL/6 mice. In kind it is in vivo. The following applies: 40 mg/kg daily subcutaneous injections, 21 days. On the procedure: In the example, C57BL/6 mice were subcutaneously injected with B16 melanoma cells. Tumor cells were allowed to develop for one week, after that mice were treated with daily subcutaneous injections of vehicle or DW192 (40 mg/kg) for 21 days. FIG. 12A is a plot showing the tumor growth curves.

With `CC(C)(C)[C@]1(O)C[C@@H]2OC(=O)C[C@@]23C(=O)O[C@@H]2N(CC4C5CC6CC(C5)CC4C6)C(=O)[C@H](OC(=O)c4ccccc4)[C@]213` (stereo partly drawn) [DW192, (3aS,5aS,8R,8aS,9R,10aS)-6-(((1S,5R,7S)-adamantan-2-yl)methyl)-9-(tert-butyl)-9-hydroxy-2,4,7-trioxooctahydro-4H,9H-furo [3″,2″:2′,3′]cyclopenta[1′,2′:3,4]furo[2,3-b]pyrrol-8-yl benzoate], in [1] (10 μM), the “cytotoxic effect across the NCI-60 cell line panel” value is “exhibits cytotoxic effects towards multiple cell lines of different cancer type”. Besides, in data set [1] (COL0205 (colon cancer), 10 μM), the lethality worked out at 66.18%. For the same compound, in [1] (Homo sapiens, HOP-62, HOP62 (NSCLC), read-out: growth inhibition), the inhibition at 10 µM was found to be 50.2%. Moreover, the 50% inhibitory concentration (IC50) in data set [2] was found to be 15.8 µM; in [3], 19.6 µM; in data set [7] (48 hours) it was 16.4 µM; in data set [7] (Homo sapiens, A549, 48 h), 21.9 µM; in data set [8] it was 21.9 µM. In addition, the “% Viability (50 uM, 48 h) A549” value in [4] was determined as 53.19%. Moreover, the viability at 50 µM amounted to 53% in data set [4] (Homo sapiens, A549, 48 h, read-out: % Viability (50 uM, 48 h) A549); 48.2% in data set [5]; 43% in data set [6] (Homo sapiens, Jurkat, 48 h, CCK-8, read-out: % Viability (50 uM, 48 h) Jurkat). For the same compound, in [6] (CCK-8, 50 µM), the “% Viability (50 uM, 48 h) Jurkat” value came out at 43.26%. The “tumor growth and size” value in [9] was “significantly reduced the growth and size of melanoma tumors”.
